According to patent US9234004B2, “Antimicrobial peptides” (Agency for Science, Technology and Research, priority 2010, dated 2016):
In brackets after ≈: the same amount, converted by molar mass. Like-named read-outs stand apart in the source and are kept apart here. Bridge positions count the residues as written; N and C are the ends. Ends that are not written are not given here. Peptide text beside a SMILES is read from it. I, II: the chains in the order shown.

Experiments:
Format in all cases: cell-based
[1] = test system: E. aerogenes (ATCC No. 13048); settings: ATCC No. 13048, 18 h
Description: (§1) Microbes were re-constituted from their dried pellets obtained from ATCC according to the recommended protocols. Bacterial culture was done in tryptic soy broth at 37° C., while yeast was cultured in yeast mould broth at room temperature, under constant shaking at 100 rpm. Briefly, microbial suspension was first adjusted to contain ˜3×10^8 CFU/mL, by adjusting its 600 nm absorbance to be equivalent to that of the standard McFarland 1 reference. The suspension was then diluted to contain ˜3×10^6 CFU/mL. Under this condition, the O.D. reading was approximately 0.05-0.06 for bacterial cultures, and 0.03-0.04 for yeast cultures. Equal volume (100 μL) of the microbial suspension and the peptide solutions was mixed in a 96-well plate, and the microbial growth was monitored by measuring the O.D. reading at 0 and 18 hours.

[2] = test system: C. albicans (ATCC No. 10231); settings: ATCC No. 10231, 18 h
Description: as §1

[3] = test system: S. aureus (ATCC No. 29737); settings: ATCC No. 29737, 18 h
Description: as §1

[4] = test system: P. aeruginosa (ATCC No. 9027); settings: ATCC No. 9027, 18 h
Description: as §1

[5] = test system: B. subtilis (ATCC No. 23857); settings: ATCC No. 23857, 18 h
Description: as §1

[6] = test system: human red blood cells (hRBC)
Description: The peptides' hemolysis was tested in human red blood cells (hRBC). hRBCs were diluted 25× to achieve 4% concentration (v %) in phosphate-buffered saline (PBS, pH 7.4). Upon dilution, the blood suspension was treated with equal volume of (LLKK)4 (SEQ ID NO: 8), [(LLKK)2]2, or [(LLKK)2]4 peptide solution in PBS to reach final peptide concentrations of 0-500 mg/L. The treatment was performed inside a 37° C. incubator for 1 hour, after which the mixture was centrifuged at 1000 g for 5 mins to remove the non-hemolysed blood cells. The supernatant (100 μL) was transferred into a 96-well plate, and measured spectrophotometrically for its absorbance at 567 nm using a microplate reader (TECAN, Switzerland)^[5]. PBS and 0.1% Triton-X were used as negative and positive controls respectively. Hemolysis level was calculated according to the following formula: % Hemolytic=(Absorbance for Peptide treatment−Absorbance for PBS treatment)/(Absorbance for Triton treatment−Absorbance for PBS treatment)×100% Minimum Inhibitory Concentration (MIC)

[7] = test system: E. coli; settings: 2
Description: (§2) E. coli and S. aureus were treated at MIC and 2×MIC concentrations with [(LLKK)2]4 peptide. At various time periods (0, 0.5, 1, 2, 5, 8 and 18 hours), microbial suspensions were diluted at 3 different dilutions and plated on 1.5% LB agar plates. Microbial colonies were formed and counted after 24 hours of incubation (for bacteria) or 48 hours of incubation (for yeast).

[8] = test system: S. aureus; settings: 2
Description: as §2

[9] = test system: E. coli (ATCC No. 25922); settings: ATCC No. 25922, 18 h
Description: as §1

[10] = test system: rat red blood cells; experiment: Hemolytic activity test
Description: Peptides were obtained from GL Biochem (Shanghai, China), and their fidelity was further confirmed via matrix-assisted laser desorption/ionization time-of-flight mass spectroscopy (MALDI-TOF MS, Model Autoflex II, Bruker Daltonics Inc., U.S.A.), using α-cyano-4-hydroxycinnamic acid as matrix. The purity of the peptides was also tested to be more than 95% with analytical reverse phase (RP)-HPLC. α-Cyano-4-hydroxycinnamic acid (HCCA) was purchased from Sigma-Aldrich (Singapore) and used in saturated acetonitrile/water (1:1 volume ratio) after being re-crystallized. Sodium dodecyl sulphate (SDS) micelle solution (10% w/v in DI water) was obtained from 1st Base (Malaysia) and used upon dilution to the desirable concentration range. Tryptic soy broth (TSB) powder and yeast mould broth (YMB) powder were purchased from BD Diagnostics (Singapore) and used to prepare the microbial broths according to the manufacturer's instructions. Phosphate-buffered saline solution at 10× concentration was purchased from 1st Base (Malaysia) and used after dilution to the desired concentration. Ethanol (analytical grade, 99%) and glutaraldehyde (synthetic grade, 50% in H2O) were purchased from Sigma Aldrich (Singapore) and used as received. […] Red blood cells used in the experiments were obtained from rats maintained at the Animal Handling Units of the Biomedical Research Centers (Singapore). Human peripheral blood mononuclear cells (PBMCs) were extracted from healthy blood donors and maintained with RPMI medium supplemented with 10% lowendotoxin fetal bovine serum (FBS) and 1% penicillin-streptomycin. Granulocyte macrophage-colony stimulating factor (GM-CSF) and lipopolysaccharide were purchased from Sigma-Aldrich and used as received.
Fresh red blood cells were washed with PBS for three times, and were subjected to 25 times dilution with PBS to reach a concentration of approximately 4% (in volume) of the blood cells. The red blood cell suspension (100 μL) was placed into a 96-well cell culture plate and mixed with 100 μL of the antimicrobial peptide solution in PBS at concentrations of 0.98, 1.95, 3.90, 7.81, 15.63, 31.25, 62.5, 125, 250, 500 mg/L. The mixture was then incubated at 37° C. for 1 hour to allow for the hemolysis process to take place. At the end of incubation time, the non-hemolysed red blood cells were separated by centrifugation at 13000 g for 5 minutes. Aliquots (100 μL) of the supernatant were transferred into a new 96-well plate, and the hemoglobin release was measured by checking the UV-absorbance of the samples at 576 nm using a microplate reader (TECAN, Switzerland). Two controls were provided in this assay: an untreated red blood cell suspension in PBS was used as the negative control, and a solution containing red blood cells lysed with 0.1% Triton-X was used as the positive control. Each assay was performed in 6 replicates, and the data were expressed as means and standard deviations of the 6 replicates. Percentage of hemolysis was calculated using the following formula: Hemolysis (%)=[(O.D.576 nm of the treated sample−O.D.576 nm of the negative control)/(O.D.576 nm of positive control−O.D.576 nm of negative control)]×100%. Field Emission-Scanning Electron Microscopy (FE-SEM) Analysis of Bacterial Cells

[11] = test system: C. albicans; settings: 8 h
Description: (§3) Microbial cells were firstly re-constituted from its lyophilized form according to the manufacturer's protocol. Bacterial cells were cultured in tryptic soy broth (TSB) at 37° C., and yeast cells were cultured in yeast mould broth (YMB) at room temperature under constant shaking at 100 rpm. Broth containing an antimicrobial peptide was prepared at various concentrations (0.98, 1.95, 3.90, 7.81, 15.63, 31.25, 62.5, 125, 250, 500 mg/L) and transferred into a 96-well tissue culture plate (100 μL/well). Microorganism was first inoculated overnight to enter its log growth-phase. An equal volume of microorganism solution (100 μL) was added into each well of the 96-well plate containing the antimicrobial peptide. Prior to this mixing, the concentration of microorganism solution was adjusted to give an initial optical density (O.D.) reading of 0.1-0.2 at 600 nm wavelength. The growth of the microorganism was observed upon introducing the antimicrobial peptide by measuring the O.D. readings at 2 hour intervals for up to 8 hours. […] Broth containing microbial cells was used as the negative control, and each test was carried out in 6 replicates. The standard deviations of the 6 readings were reported as the error bars.

[12] = test system: E. coli; settings: 8 h
Description: as §3

[13] = test system: B. subtilis; settings: 8 h
Description: as §3

Molecule	MIC E. aerogenes [1] [µg/mL]	MIC C. albicans [2] [µg/mL]	MIC S. aureus [3] [µg/mL]	MIC P. aeruginosa [4] [µg/mL]	MIC B. subtilis [5] [µg/mL]	hemolytic activity towards human red blood cells, in words [6]	HC50 ([6]; red cells of human, 1 h) [mg/L]	cells killed after 1 hour ([7]; 1 h)	cells killed after 8 hours ([7]; 8 h)	cells killed after 1 hour ([8]; 1 h)	cells killed after 8 hours ([8]; 8 h)	MIC E. coli [9] [µg/mL]	hemolysis at 500 mg/L ([6]; red cells of human, 500) [%]	hemolysis at the MIC against B. subtilis [10] [%]	HC50 (50% hemolytic concentration) ([10]; red cells of rat, 1 h) [mg/L]	HC50 [6] [mg/L]	MIC C. albicans [11] [µg/mL]	MIC E. coli [12] [µg/mL]	MIC B. subtilis [13] [µg/mL]
CC(C)C[C@H](NC(=O)[C@H](CC(C)C)NC(=O)[C@H](CCCCN)NC(=O)[C@H](CCCCN)NC(=O)[C@H](CC(C)C)NC(=O)[C@@H](N)CC(C)C)C(=O)N[C@@H](CCCCN)C(=O)N[C@@H](CCCCN)C(=O)NCCCC[C@H](NC(=O)[C@H](CCCCN)NC(=O)[C@H](CCCCN)NC(=O)[C@H](CC(C)C)NC(=O)[C@H](CC(C)C)NC(=O)[C@H](CCCCN)NC(=O)[C@H](CCCCN)NC(=O)[C@H](CC(C)C)NC(=O)[C@@H](N)CC(C)C)C(=O)N[C@@H](CSSC[C@H](NC(=O)[C@H](CCCCNC(=O)[C@H](CCCCN)NC(=O)[C@H](CCCCN)NC(=O)[C@H](CC(C)C)NC(=O)[C@H](CC(C)C)NC(=O)[C@H](CCCCN)NC(=O)[C@H](CCCCN)NC(=O)[C@H](CC(C)C)NC(=O)[C@@H](N)CC(C)C)NC(=O)[C@H](CCCCN)NC(=O)[C@H](CCCCN)NC(=O)[C@H](CC(C)C)NC(=O)[C@H](CC(C)C)NC(=O)[C@H](CCCCN)NC(=O)[C@H](CCCCN)NC(=O)[C@H](CC(C)C)NC(=O)[C@@H](N)CC(C)C)C(N)=O)C(N)=O [[(LLKK)2]4, [LLKKLLKK]2K*C—S—S—CK*[KKLLKKLL]2] (I: H-LLKKLLKKKC-NH2 / II: H-LLKKLLKKKC-NH2 / III: H-LLKKLLKK / IV: H-LLKKLLKK; amide I:9-III:C, II:9-IV:C; disulfide I:10-II:10)	63 (≈ 14.5 µM)	125 (≈ 28.7 µM)	400 (≈ 91.8 µM)	8 (≈ 1.84 µM)	16 (≈ 3.67 µM)	only hemolytic at an acceptable level	>500	more than 50%	more than 99.99%	more than 50%	more than 99.99%	–	–	–	–	–	–	–	–
CC(C)C[C@H](NC(=O)[C@H](CC(C)C)NC(=O)[C@H](CCCCN)NC(=O)[C@H](CCCCN)NC(=O)[C@H](CC(C)C)NC(=O)[C@@H](N)CC(C)C)C(=O)N[C@@H](CCCCN)C(=O)N[C@@H](CCCCN)C(=O)NCCCC[C@H](NC(=O)[C@H](CCCCN)NC(=O)[C@H](CCCCN)NC(=O)[C@H](CC(C)C)NC(=O)[C@H](CC(C)C)NC(=O)[C@H](CCCCN)NC(=O)[C@H](CCCCN)NC(=O)[C@H](CC(C)C)NC(=O)[C@@H](N)CC(C)C)C(=O)N[C@@H](CS)C(N)=O [[(LLKK)2]2, [LLKKLLKK]2K*C—CONH2] (I: H-LLKKLLKKKC-NH2 / II: H-LLKKLLKK; amide I:9-II:C)	125 (≈ 57.4 µM)	63 (≈ 28.9 µM)	>500	8 (≈ 3.67 µM)	8 (≈ 3.67 µM)	–	>500	–	–	–	–	31 (≈ 14.2 µM)	~18	–	–	–	–	–	–
LLKKLLKKLLKKLLKK-NH2 [(LLKK)4, LLKKLLKKLLKKLLKK-NH2]	25	>50	>50	6.3	6.3	significant hemolysis at concentrations around its MICs	–	–	–	–	–	12.5	–	~30	~24	~37.5	>50	>50	10
